Source: patent US5633382A, “Histamine H3 -receptor antagonists and therapeutic uses thereof” (The University of Toledo, priority 1994, dated 1997)

What was measured:
histamine H3 -receptor = experiment: Reversal of the soporific effect of (R)α-methylhistamine in mice; format: in vivo, mouse
Experimental: The overall strategy to show central nervous system antagonist activity was to challenge effects of the agonist (R)α-methylhistamine. Therefore, the first objective was to establish a dose response curve for behavioral effects of (R)α-methylhistamine. Male albino CF-1 mice weighing 20-30 g were used. Saline or (R)α-methylhistamine in saline was injected i.p. in a volume ≤0.4 ml. […] Animals were scored for the presence (1) or absence (0) of the behavior and the results were reported as the accumulated score for a 30 minute period (maximum score=9).
To assess the effects of antagonists, they were administered with the (R)α-methylhistamine in saline.

[1] = animal toxicity studies or clinical usage; cited from earlier work
[2] = tested on: H3 receptors in the cortex; experiment: Blood-brain barrier penetration by ex vivo binding of [3H]-Nα-methylhistamine to cortex homogenate; format: in vivo, rat
Experimental: Blood-brain barrier penetration in rats was assessed by an ex vivo binding procedure. Young adult male Long-Evans rats were injected i.p. with saline or H3 antagonists in saline. At various times after injection animals were sacrificed, the cortex was removed, homogenized in 50 mM Na/K-phosphate buffer, pH 7.4, and the binding of 1 nM [^3 H]-N^α -methylhistamine was measured using 400 μg protein of the homogenate. Nonspecific binding was accounted for by the inclusion of excess thioperamide in some samples. Under these conditions, the binding was approximately 90% specific.

[3] = Toxicity observed in testing to date; format: in vivo; conditions: all testing to date, even at high doses
[4] = tested on: adenosine, excitory or inhibitory amino acid, dopamine, serotonin, or a broad range of petidergic receptors, or to ion channel proteins, peptide factor or …; experiment: NOVASCREEN receptor selectivity study, panel as a whole; format: binding; conditions: 10^-5 M
ANF (rat) = experiment: NOVASCREEN receptor selectivity assay; format: binding; conditions: 10^-5 M
Source text: (§1) represent the average of duplicate tubes at each of the concentrations

Adenosine = experiment: NOVASCREEN receptor selectivity assay; format: binding; conditions: 10^-5 M
Source text: as §1

[5] = tested on: Adenylate Cyclase (Forskolin); experiment: NOVASCREEN receptor selectivity assay; format: binding; conditions: 10^-5 M
Source text: as §1

Angiotensin = experiment: NOVASCREEN receptor selectivity assay; format: binding; conditions: 10^-5 M
Source text: as §1

Arg-Vasopressin V1 = experiment: NOVASCREEN receptor selectivity assay; format: binding; conditions: 10^-5 M
Source text: as §1

Benzodiazephine = experiment: NOVASCREEN receptor selectivity assay; format: binding; conditions: 10^-5 M
Source text: as §1

Bombesin = experiment: NOVASCREEN receptor selectivity assay; format: binding; conditions: 10^-5 M
Source text: as §1

CCK Central = experiment: NOVASCREEN receptor selectivity assay; format: binding; conditions: 10^-5 M
Source text: as §1

CCK Peripheral = experiment: NOVASCREEN receptor selectivity assay; format: binding; conditions: 10^-5 M
Source text: as §1

[6] = tested on: Calcium channel (Nifedipine); experiment: NOVASCREEN receptor selectivity assay; format: binding; conditions: 10^-5 M
Source text: as §1

Chloride channel = experiment: NOVASCREEN receptor selectivity assay; format: binding; conditions: 10^-5 M
Source text: as §1

Dopamine 1 = experiment: NOVASCREEN receptor selectivity assay; format: binding; conditions: 10^-5 M
Source text: as §1

Dopamine 2 = experiment: NOVASCREEN receptor selectivity assay; format: binding; conditions: 10^-5 M
Source text: as §1

EGF = experiment: NOVASCREEN receptor selectivity assay; format: binding; conditions: 10^-5 M
Source text: as §1

GABAA = experiment: NOVASCREEN receptor selectivity assay; format: binding; conditions: 10^-5 M
Source text: as §1

GABAB = experiment: NOVASCREEN receptor selectivity assay; format: binding; conditions: 10^-5 M
Source text: as §1

Glycine (Inhibitory) = experiment: NOVASCREEN receptor selectivity assay; format: binding; conditions: 10^-5 M
Source text: as §1

Glycine (excitatory) = experiment: NOVASCREEN receptor selectivity assay; format: binding; conditions: 10^-5 M
Source text: as §1

Inositol Triphosphate = experiment: NOVASCREEN receptor selectivity assay; format: binding; conditions: 10^-5 M
Source text: as §1

Kainate = experiment: NOVASCREEN receptor selectivity assay; format: binding; conditions: 10^-5 M
Source text: as §1

MK-801 = experiment: NOVASCREEN receptor selectivity assay; format: binding; conditions: 10^-5 M
Source text: as §1

NGF = experiment: NOVASCREEN receptor selectivity assay; format: binding; conditions: 10^-5 M
Source text: as §1

NMDA = experiment: NOVASCREEN receptor selectivity assay; format: binding; conditions: 10^-5 M
Source text: as §1

NPY = experiment: NOVASCREEN receptor selectivity assay; format: binding; conditions: 10^-5 M
Source text: as §1

Neurotensin = experiment: NOVASCREEN receptor selectivity assay; format: binding; conditions: 10^-5 M
Source text: as §1

PCP = experiment: NOVASCREEN receptor selectivity assay; format: binding; conditions: 10^-5 M
Source text: as §1

Potassium channel = experiment: NOVASCREEN receptor selectivity assay; format: binding; conditions: 10^-5 M
Source text: as §1

[7] = tested on: Protein Kinase C (Phorbol Ester); experiment: NOVASCREEN receptor selectivity assay; format: binding; conditions: 10^-5 M
Source text: as §1

[8] = tested on: Quisqualate (Excitatory Amino Acids); experiment: NOVASCREEN receptor selectivity assay; format: binding; conditions: 10^-5 M
Source text: as §1

Serotonin 1 = experiment: NOVASCREEN receptor selectivity assay; format: binding; conditions: 10^-5 M
Source text: as §1

Serotonin 2 = experiment: NOVASCREEN receptor selectivity assay; format: binding; conditions: 10^-5 M
Source text: as §1

Somatostatin = experiment: NOVASCREEN receptor selectivity assay; format: binding; conditions: 10^-5 M
Source text: as §1

Substance K = experiment: NOVASCREEN receptor selectivity assay; format: binding; conditions: 10^-5 M
Source text: as §1

Substance P = experiment: NOVASCREEN receptor selectivity assay; format: binding; conditions: 10^-5 M
Source text: as §1

VIP = experiment: NOVASCREEN receptor selectivity assay; format: binding; conditions: 10^-5 M
Source text: as §1

[9] = tested on: Calcium channel (w-Conotoxin); format: binding; conditions: 10^-5 M
[10] = Behavioral effects (sleeping) after i.p. injection in mice; format: in vivo, mouse
histamine H3 receptors = conditions: cited from earlier work
[11] = dogs, 162 mg/kg/day, repeated dose; cited from earlier work
[12] = peptic ulcer patients; cited from earlier work

With `O=C(CCCCC1CCCCC1)N1CCC(c2c[nH]cn2)CC1` [Compound 2016] the “reversal of soporific effect of R(-)-alphamethylhistamine” value (histamine H3 -receptor; both drugs administered peripherally) was “reverses the soporific effect”.
In the case of `CN/C(=N/CCSCc1nc[nH]c1C)NC#N` [cimetidine], the “granulocytopenia or other side effects” value [1] is given as “did not cause granulocytopenia, or any other side effects”.
In the case of `O=C(CCCCC1CCCCC1)N1CCC(c2c[nH]cn2)CC1` [Compound 1, 4-(1-CYCLOHEXYLVALEROYL-4-PIPERIDYL) 1H-IMIDAZOLE], the blood-brain barrier penetration ([2]; i.p. 50 and 70 mg/kg, one hour after injection) is reported as “penetrates the blood-brain barrier”, the “inhibition of soporific effect of (R)α-methylhistamine” value (histamine H3 -receptor; agonist 25 mg/kg) is reported as “inhibited the soporific effect” and the toxicity [3] is reported as “no toxicity”. The “significant binding to other receptors” value [4] was “no significant binding”, the “Initial Percent Inhibition (Average; N = 2)” value (“Initial Percent Inhibition” below) (ANF (rat)) was 0.1% and the “Initial Percent Inhibition” value (Adenosine) was -3.0%. For the same compound, the “Initial Percent Inhibition” value [5] was 2.1%, the “Initial Percent Inhibition” value (Angiotensin) was 6.5% and the “Initial Percent Inhibition” value (Arg-Vasopressin V1) was 10.1%. For the same compound, the “Initial Percent Inhibition” value (Benzodiazephine) was 2.7%, the “Initial Percent Inhibition” value (Bombesin) was -5.5% and the “Initial Percent Inhibition” value (CCK Central) was 18.6%. For the same compound, the “Initial Percent Inhibition” value (CCK Peripheral) was 6.9%, the “Initial Percent Inhibition” value [6] was 8.1% and the “Initial Percent Inhibition” value (Chloride channel) was -3.4%. For the same compound, the “Initial Percent Inhibition” value (Dopamine 1) was 6.4%, the “Initial Percent Inhibition” value (Dopamine 2) was 3.5% and the “Initial Percent Inhibition” value (EGF) was 18.1%. The “Initial Percent Inhibition” value (GABAA) was 0.6%, the “Initial Percent Inhibition” value (GABAB) was 0.0% and the “Initial Percent Inhibition” value (Glycine (Inhibitory)) was 17.4%. For the same compound, the “Initial Percent Inhibition” value (Glycine (excitatory)) was 1.8%, the “Initial Percent Inhibition” value (Inositol Triphosphate) was 9.2% and the “Initial Percent Inhibition” value (Kainate) was 42.1%. The “Initial Percent Inhibition” value (MK-801) was -8.6%, the “Initial Percent Inhibition” value (NGF) was 17.1% and the “Initial Percent Inhibition” value (NMDA) was -4.5%. For the same compound, the “Initial Percent Inhibition” value (NPY) was -8.7%, the “Initial Percent Inhibition” value (Neurotensin) was -10.5% and the “Initial Percent Inhibition” value (PCP) was 9.7%. The “Initial Percent Inhibition” value (Potassium channel) was 7.7%, the “Initial Percent Inhibition” value [7] was 0.9% and the “Initial Percent Inhibition” value [8] was -1.8%. For the same compound, the “Initial Percent Inhibition” value (Serotonin 1) was -3.6%, the “Initial Percent Inhibition” value (Serotonin 2) was 10.5% and the “Initial Percent Inhibition” value (Somatostatin) was 4.1%. The “Initial Percent Inhibition” value (Substance K) was 29.2%, the “Initial Percent Inhibition” value (Substance P) was 20.0% and the “Initial Percent Inhibition” value (VIP) was 17.1%. The “Initial Percent Inhibition” value [9] was 1.9%.
With `C[C@@H](N)Cc1c[nH]cn1` [(R)α-methylhistamine] the sleeping ([10]; i.p. 15 to 35 mg/kg, one hour after injection, also evident at 30 minutes) was “dose-dependent (range of 15 to 35 mg/kg) increase in sleeping”.
For `S=C(NC1CCCCC1)N1CCC(c2cnc[nH]2)CC1` [Thioperamide], the “binding of [3H]-Nα-methylhistamine to cortical H3 receptors / blood-brain barrier penetration” value ([2]; i.p. 2, 5, and 10 mg/kg, 15 min after injection) was “decreased the binding of [^3 H]-Nα-methylhistamine to H3 receptors in the cortex”, the behavior ([10]; thioperamide alone, without agonist) was “very active, exhibiting normal behaviors” and the “inhibition of soporific effect of (R)α-methylhistamine” value (histamine H3 -receptor; agonist 30 mg/kg) was “able to inhibit the soporific effect”. The “dose required to inhibit histamine release from the brain” value (histamine H3 receptors; rats) was “relatively high doses are required in vivo” and the blood-brain-barrier penetration (histamine H3 receptors; suggested by Ganellin et al.) was “poor penetration through the blood-brain-barrier”.
For `C/N=C(\S)NCCSCc1[nH]cnc1C` [metiamide], the agranulocytosis [11] is listed as “incidences of agranulocytosis” and the granulocytopenia [12] is listed as “low incidence of granulocytopenia”.
